Measurements published in paper PMC4532999 (Scientific Reports, 2015).
Positions of bridges follow the written chain, without caps; N, C: chain ends. Non-standard residues stand in square brackets, D forms with d. Residues, ends and D or L forms follow the SMILES beside them. No end group written: not given here. pY = N[C@@H](Cc1ccc(OP(=O)(O)O)cc1)C(=O)O

How the values were obtained:
Abl kinase = Abl kinase (Homo sapiens, UniProt P00519); test: BacKin assay, inhibition of phosphorylation of abltide displayed on E. coli; format: biochemical; details: 32 μM peptide, Abl kinase 0.2 U/mL, 37 °C, 30 min
Abl kinase, sequence (P00519 whole entry): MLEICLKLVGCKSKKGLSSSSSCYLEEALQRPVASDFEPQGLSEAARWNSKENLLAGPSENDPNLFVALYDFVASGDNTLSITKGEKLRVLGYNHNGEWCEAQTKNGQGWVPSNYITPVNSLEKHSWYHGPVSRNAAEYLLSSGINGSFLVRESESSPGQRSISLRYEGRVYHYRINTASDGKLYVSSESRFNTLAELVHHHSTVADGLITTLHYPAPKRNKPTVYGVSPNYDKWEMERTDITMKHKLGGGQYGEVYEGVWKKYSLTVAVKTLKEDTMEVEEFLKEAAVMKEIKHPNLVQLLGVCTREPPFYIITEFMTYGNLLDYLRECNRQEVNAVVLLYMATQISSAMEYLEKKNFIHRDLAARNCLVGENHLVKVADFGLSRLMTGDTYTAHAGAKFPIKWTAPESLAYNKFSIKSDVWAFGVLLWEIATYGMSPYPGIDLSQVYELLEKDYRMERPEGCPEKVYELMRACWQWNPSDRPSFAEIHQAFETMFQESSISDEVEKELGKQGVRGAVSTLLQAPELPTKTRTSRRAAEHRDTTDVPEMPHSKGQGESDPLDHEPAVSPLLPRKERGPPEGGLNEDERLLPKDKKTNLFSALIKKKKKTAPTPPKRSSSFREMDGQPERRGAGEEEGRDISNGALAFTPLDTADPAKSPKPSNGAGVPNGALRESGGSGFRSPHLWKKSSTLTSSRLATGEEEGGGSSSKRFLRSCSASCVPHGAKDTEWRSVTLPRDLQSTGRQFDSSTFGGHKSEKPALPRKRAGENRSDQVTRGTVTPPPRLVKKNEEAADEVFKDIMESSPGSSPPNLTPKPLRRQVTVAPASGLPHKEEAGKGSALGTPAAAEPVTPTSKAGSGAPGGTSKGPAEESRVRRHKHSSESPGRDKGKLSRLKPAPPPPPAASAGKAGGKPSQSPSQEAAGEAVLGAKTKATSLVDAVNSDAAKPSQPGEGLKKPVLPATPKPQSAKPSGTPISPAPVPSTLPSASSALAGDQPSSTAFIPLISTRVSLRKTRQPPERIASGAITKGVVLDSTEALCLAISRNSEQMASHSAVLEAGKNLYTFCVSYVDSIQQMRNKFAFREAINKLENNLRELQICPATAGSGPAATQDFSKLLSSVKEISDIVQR

Serum stability assay = details: 100% human serum, 37 °C
Procedure: All peptides were tested at a final concentration of 30 μM in 100% human serum. […] Reactions were stopped at the stipulated times and the serum proteins in each sample were denatured and precipitated, followed by centrifugation at 17,000 g for 10 min to separate the serum proteins from peptide samples. […] The elution time for each peptide was determined by the PBS control from 0 time point. The percentage of peptide remaining at each time point was calculated using the height of the serum-treated peptide peak from time 0 as 100% recovery.

HeLa cells = system: HeLa cells
Procedure: Since BCR-ABL localizes predominantly in the cytoplasm, it is important to evaluate whether the designed peptides can be internalized into cells.
Human cervical cancer cells (HeLa) were seeded in 175-cm^2 tissue culture flasks (Falcon), in Dulbecco’s Modified Eagle’s Medium (DMEM) supplemented with 10% fetal bovine serum, 100 U/mL penicillin and […] streptomycin, until 80% confluent.
Cytotoxicity of the MTAbl peptides towards HeLa cells was evaluated before the cell internalization assay. The mammalian cell cytotoxicity assay was conducted using a method described earlier. HeLa cells were seeded the day before the assay in 96-well tissue culture-treated plates (2.5 × 10^3 cells/well). […] Peptide solutions were diluted 10-fold with serum-free medium and incubated with cells in triplicates for 2 h. […] Following incubation the peptide solutions were removed and aliquots of 10 μL of 0.02% (w/v) sterile resazurin (resazurin sodium salt, Sigma) were added to each well containing 100 μL of fresh medium. […] The absorbance of the plates was measured on a plate reader at 540 and 620 nm.

Molecule | percentage of Abl kinase inhibition (Abl kinase) | other results
CC[C@H](C)[C@@H]1NC(=O)[C@H](C)NC(=O)[C@H](CCC(=O)O)NC(=O)[C@@H]2CSSC[C@@H]3NC(=O)[C@H](CC(=O)O)NC(=O)[C@H](CO)NC(=O)[C@H](CC(=O)O)NC(=O)[C@H](CCCNC(=N)N)NC(=O)[C@H](CCCNC(=N)N)NC(=O)[C@@H]4CSSC[C@H](NC(=O)[C@H]([C@@H](C)CC)NC(=O)[C@H](CSSC[C@H](NC(=O)CNC(=O)[C@H](C)NC(=O)[C@H](Cc5ccccc5)NC(=O)[C@@H]5CCCN5C(=O)[C@H](C)NC(=O)[C@H](C)NC(=O)[C@H](Cc5ccc(O)cc5)NC1=O)C(=O)N1CCC[C@H]1C(=O)N[C@@H](CCCCN)C(=O)N[C@@H]([C@@H](C)CC)C(=O)N[C@@H](CC(C)C)C(=O)N[C@@H](CCCCN)C(=O)N[C@@H](CCCCN)C(=O)N4)NC(=O)[C@H](C)NC(=O)CNC(=O)[C@@H]1CCCN1C3=O)C(=O)N[C@@H](CCCNC(=N)N)C(=O)NCC(=O)N[C@@H](CC(N)=O)C(=O)NCC(=O)N[C@@H](Cc1ccc(O)cc1)C(=O)N2 [MTAbl03] (cyclo(AAPFAGCPKILKKCRRDSDCPGACICRGNGYCEAIY); disulfide 7-24, 14-26, 20-32) | 50% | 
CC[C@H](C)[C@@H]1NC(=O)[C@H](C)NC(=O)[C@H](CCC(=O)O)NC(=O)CNC(=O)[C@@H]2CSSC[C@@H]3NC(=O)[C@H](CC(=O)O)NC(=O)[C@H](CO)NC(=O)[C@H](CC(=O)O)NC(=O)[C@H](CCCNC(=N)N)NC(=O)[C@H](CCCNC(=N)N)NC(=O)[C@@H]4CSSC[C@H](NC(=O)[C@H]([C@@H](C)CC)NC(=O)[C@H](CSSC[C@H](NC(=O)[C@H](CCCNC(=N)N)NC(=O)[C@H](C)NC(=O)[C@H](Cc5ccccc5)NC(=O)[C@@H]5CCCN5C(=O)[C@H](C)NC(=O)[C@H](C)NC(=O)[C@H](Cc5ccc(OP(=O)(O)O)cc5)NC1=O)C(=O)N1CCC[C@H]1C(=O)N[C@@H](CCCCN)C(=O)N[C@@H]([C@@H](C)CC)C(=O)N[C@@H](CC(C)C)C(=O)N[C@@H](CCCCN)C(=O)N[C@@H](CCCCN)C(=O)N4)NC(=O)[C@H](C)NC(=O)CNC(=O)[C@@H]1CCCN1C3=O)C(=O)N[C@@H](CCCNC(=N)N)C(=O)NCC(=O)N[C@@H](CC(N)=O)C(=O)NCC(=O)N[C@@H](Cc1ccc(O)cc1)C(=O)N2 [MTAbl12] (cyclo(AAPFARCPKILKKCRRDSDCPGACICRGNGYCGEAI[pY]); disulfide 7-24, 14-26, 20-32) |  | stability in human serum (in words; comparison to MCoTI-II at 24 h) (Serum stability assay; 24 h, one-way ANOVA, three replicates): lower stability
EAIYAAPFAKKK [abltide, reference compound] |  | time to complete degradation in human serum (Serum stability assay; 30 μM peptide, RP-HPLC): ≤ 1 h
CC[C@H](C)[C@@H]1NC(=O)[C@H](C)NC(=O)[C@H](CCC(=O)O)NC(=O)CNC(=O)[C@@H]2CSSC[C@@H]3NC(=O)[C@H](CC(=O)O)NC(=O)[C@H](CO)NC(=O)[C@H](CC(=O)O)NC(=O)[C@H](CCCNC(=N)N)NC(=O)[C@H](CCCNC(=N)N)NC(=O)[C@@H]4CSSC[C@H](NC(=O)[C@H]([C@@H](C)CC)NC(=O)[C@H](CSSC[C@H](NC(=O)[C@H](CCCCN)NC(=O)[C@H](C)NC(=O)[C@H](Cc5ccccc5)NC(=O)[C@@H]5CCCN5C(=O)[C@H](C)NC(=O)[C@H](C)NC(=O)[C@H](Cc5ccc(O)cc5)NC1=O)C(=O)N1CCC[C@H]1C(=O)N[C@@H](CCCCN)C(=O)N[C@@H]([C@@H](C)CC)C(=O)N[C@@H](CC(C)C)C(=O)N[C@@H](CCCCN)C(=O)N[C@@H](CCCCN)C(=O)N4)NC(=O)[C@H](C)NC(=O)CNC(=O)[C@@H]1CCCN1C3=O)C(=O)N[C@@H](CCCNC(=N)N)C(=O)NCC(=O)N[C@@H](CC(N)=O)C(=O)NCC(=O)N[C@@H](Cc1ccc(O)cc1)C(=O)N2 [MTAbl05] (cyclo(AAPFAKCPKILKKCRRDSDCPGACICRGNGYCGEAIY); disulfide 7-24, 14-26, 20-32) | ~ 90% | 
CC[C@H](C)[C@@H]1NC(=O)[C@H](C)NC(=O)[C@H](CCC(=O)O)NC(=O)[C@@H]2CSSC[C@@H]3NC(=O)[C@H](CC(=O)O)NC(=O)[C@H](CO)NC(=O)[C@H](CC(=O)O)NC(=O)[C@H](CCCNC(=N)N)NC(=O)[C@H](CCCNC(=N)N)NC(=O)[C@@H]4CSSC[C@H](NC(=O)[C@H]([C@@H](C)CC)NC(=O)[C@H](CSSC[C@H](NC(=O)[C@H](CCCCN)NC(=O)[C@H](C)NC(=O)[C@H](Cc5ccccc5)NC(=O)[C@@H]5CCCN5C(=O)[C@H](C)NC(=O)[C@H](C)NC(=O)[C@H](Cc5ccc(O)cc5)NC1=O)C(=O)N1CCC[C@H]1C(=O)N[C@@H](CCCCN)C(=O)N[C@@H]([C@@H](C)CC)C(=O)N[C@@H](CC(C)C)C(=O)N[C@@H](CCCCN)C(=O)N[C@@H](CCCCN)C(=O)N4)NC(=O)[C@H](C)NC(=O)CNC(=O)[C@@H]1CCCN1C3=O)C(=O)N[C@@H](CCCNC(=N)N)C(=O)NCC(=O)N[C@@H](CC(N)=O)C(=O)NCC(=O)N[C@@H](Cc1ccc(O)cc1)C(=O)N2 [MTAbl04] (cyclo(AAPFAKCPKILKKCRRDSDCPGACICRGNGYCEAIY); disulfide 7-24, 14-26, 20-32) | ~ 50% | 
CC[C@H](C)[C@@H]1NC(=O)[C@H](C)NC(=O)[C@H](CCC(=O)O)NC(=O)CNC(=O)[C@@H]2CSSC[C@@H]3NC(=O)[C@H](CC(=O)O)NC(=O)[C@H](CO)NC(=O)[C@H](CC(=O)O)NC(=O)[C@H](CCCNC(=N)N)NC(=O)[C@H](CCCNC(=N)N)NC(=O)[C@@H]4CSSC[C@H](NC(=O)[C@H]([C@@H](C)CC)NC(=O)[C@H](CSSC[C@H](NC(=O)CNC(=O)[C@H](C)NC(=O)[C@H](Cc5ccccc5)NC(=O)[C@@H]5CCCN5C(=O)[C@H](C)NC(=O)[C@H](C)NC(=O)[C@H](Cc5ccc(O)cc5)NC1=O)C(=O)N1CCC[C@H]1C(=O)N[C@@H](CCCCN)C(=O)N[C@@H]([C@@H](C)CC)C(=O)N[C@@H](CC(C)C)C(=O)N[C@@H](CCCCN)C(=O)N[C@@H](CCCCN)C(=O)N4)NC(=O)[C@H](C)NC(=O)CNC(=O)[C@@H]1CCCN1C3=O)C(=O)N[C@@H](CCCNC(=N)N)C(=O)NCC(=O)N[C@@H](CC(N)=O)C(=O)NCC(=O)N[C@@H](Cc1ccc(O)cc1)C(=O)N2 [MTAbl02] (cyclo(AAPFAGCPKILKKCRRDSDCPGACICRGNGYCGEAIY); disulfide 7-24, 14-26, 20-32) | 90% | 
CC[C@H](C)[C@@H]1NC(=O)[C@H](C)NC(=O)[C@H](CCC(=O)O)NC(=O)CNC(=O)[C@@H]2CSSC[C@@H]3NC(=O)[C@H](CC(=O)O)NC(=O)[C@H](CO)NC(=O)[C@H](CC(=O)O)NC(=O)[C@H](CCCNC(=N)N)NC(=O)[C@H](CCCNC(=N)N)NC(=O)[C@@H]4CSSC[C@H](NC(=O)[C@H]([C@@H](C)CC)NC(=O)[C@H](CSSC[C@H](NC(=O)[C@H](CCCNC(=N)N)NC(=O)[C@H](CCCNC(=N)N)NC(=O)[C@H](CCCNC(=N)N)NC(=O)[C@H](C)NC(=O)[C@H](Cc5ccccc5)NC(=O)[C@@H]5CCCN5C(=O)[C@H](C)NC(=O)[C@H](C)NC(=O)[C@H](Cc5ccc(O)cc5)NC1=O)C(=O)N1CCC[C@H]1C(=O)N[C@@H](CCCNC(=N)N)C(=O)N[C@@H]([C@@H](C)CC)C(=O)N[C@@H](CC(C)C)C(=O)N[C@@H](CCCNC(=N)N)C(=O)N[C@@H](CCCCN)C(=O)N4)NC(=O)[C@H](C)NC(=O)CNC(=O)[C@@H]1CCCN1C3=O)C(=O)N[C@@H](CCCNC(=N)N)C(=O)NCC(=O)N[C@@H](CC(N)=O)C(=O)NCC(=O)N[C@@H](Cc1ccc(O)cc1)C(=O)N2 [MTAbl15] (cyclo(AAPFARRRCPRILRKCRRDSDCPGACICRGNGYCGEAIY); disulfide 9-26, 16-28, 22-34) |  | concentration up to which no cytotoxicity towards HeLa cells (HeLa cells): > 64 µM
CC[C@H](C)[C@@H]1NC(=O)[C@H](C)NC(=O)[C@H](CCC(=O)O)NC(=O)CNC(=O)[C@@H]2CSSC[C@@H]3NC(=O)[C@H](CC(=O)O)NC(=O)[C@H](CO)NC(=O)[C@H](CC(=O)O)NC(=O)[C@H](CCCNC(=N)N)NC(=O)[C@H](CCCNC(=N)N)NC(=O)[C@@H]4CSSC[C@H](NC(=O)[C@H]([C@@H](C)CC)NC(=O)[C@H](CSSC[C@H](NC(=O)[C@H](C)NC(=O)[C@H](Cc5ccccc5)NC(=O)[C@@H]5CCCN5C(=O)[C@H](C)NC(=O)[C@H](C)NC(=O)[C@H](Cc5ccc(O)cc5)NC1=O)C(=O)N1CCC[C@H]1C(=O)N[C@@H](CCCCN)C(=O)N[C@@H]([C@@H](C)CC)C(=O)N[C@@H](CC(C)C)C(=O)N[C@@H](CCCCN)C(=O)N[C@@H](CCCCN)C(=O)N4)NC(=O)[C@H](C)NC(=O)CNC(=O)[C@@H]1CCCN1C3=O)C(=O)N[C@@H](CCCNC(=N)N)C(=O)NCC(=O)N[C@@H](CC(N)=O)C(=O)NCC(=O)N[C@@H](Cc1ccc(O)cc1)C(=O)N2 [MTAbl01] (cyclo(AAPFACPKILKKCRRDSDCPGACICRGNGYCGEAIY); disulfide 6-23, 13-25, 19-31) | 75% | 
